Reference: ChEMBL document CHEMBL5143733, “Discovery of (E)-3-(3-((2-Cyano-4'-dimethylaminobiphenyl-4-ylmethyl)cyclohexanecarbonylamino)-5-fluorophenyl)acrylic Acid Methyl Ester, an Intestine-Specific, FXR Partial Agonist for the Treatment of Nonalcoholic Steatohepatitis” (J Med Chem, 2022)
Each block holds one molecule with its values, some of them ahead of it. Active and inactive are the calls of the source. The calls are words filed in the database; no cut-off is given here.

What was measured:
[1] = target: Peroxisome proliferator-activated receptor delta (Homo sapiens, UniProt Q03181); test: Agonist activity at human PPAR-delta expressed in CHO-K1 cells by PathHunter assay; type: cell-based
[2] = Drug metabolism in Sprague-Dawley rat plasma assessed as retention time of unidentified major metabolite at 5 mg/kg, iv upto 1 hr by RP-HPLC analysis; type: ADME, organism-based; settings: in vivo
[3] = Toxicity in CDAHFD-induced nonalcoholic steatohepatitis C57BL/6J mouse model assessed as increase in liver wet weight at 80 mg/kg, po administered daily for 4 weeks […]; type: organism-based; settings: in vivo, 672 h
[4] = Clearance in Sprague-Dawley rat at 5 mg/kg, iv measured up to 24 hrs by HPLC analysis; type: ADME, organism-based; settings: in vivo
[5] = target: T1, Bile acid receptor (Mus musculus) (UniProt Q60641); test: In vivo activation of FXR in CDAHFD-induced nonalcoholic steatohepatitis C57BL/6J mouse model assessed as induction of SHP gene expression at 80 mg/kg, po administered daily for 4 weeks; type: functional, organism-based
T1 sequence (whole entry): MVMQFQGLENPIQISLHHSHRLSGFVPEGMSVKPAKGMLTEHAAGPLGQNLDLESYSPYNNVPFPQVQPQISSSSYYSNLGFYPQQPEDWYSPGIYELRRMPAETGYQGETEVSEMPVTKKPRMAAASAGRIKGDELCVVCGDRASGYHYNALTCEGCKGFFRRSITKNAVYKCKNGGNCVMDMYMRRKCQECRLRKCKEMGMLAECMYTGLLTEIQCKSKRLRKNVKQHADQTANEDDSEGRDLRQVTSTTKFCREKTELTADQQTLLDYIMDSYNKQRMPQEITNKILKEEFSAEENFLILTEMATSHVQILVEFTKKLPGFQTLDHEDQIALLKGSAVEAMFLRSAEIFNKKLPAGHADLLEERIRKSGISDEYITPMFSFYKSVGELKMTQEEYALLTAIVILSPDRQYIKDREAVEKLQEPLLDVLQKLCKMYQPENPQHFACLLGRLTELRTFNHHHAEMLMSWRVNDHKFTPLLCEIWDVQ

[6] = target: T1, Bile acid receptor (Mus musculus); test: In vivo activation of FXR in CDAHFD-induced nonalcoholic steatohepatitis C57BL/6J mouse model assessed as induction of OST-alpha gene expression at 80 mg/kg, po administered daily for 4 weeks; type: functional, organism-based
[7] = Oral bioavailability in Sprague-Dawley rat at 80 mg/kg measured up to 24 hrs by HPLC analysis; type: ADME, organism-based; settings: in vivo
[8] = Half life in Sprague-Dawley rat at 5 mg/kg, iv measured up to 24 hrs by HPLC analysis; type: ADME, organism-based; settings: in vivo
Mus musculus [9] = test: Antiinflammatory activity in CDAHFD-induced nonalcoholic steatohepatitis C57BL/6J mouse model assessed as reduction in IL-1beta gene expression at 80 mg/kg, po administered daily for 4 weeks; type: functional, organism-based
[10] = AUClast in Sprague-Dawley rat at 80 mg/kg, po measured up to 24 hrs by HPLC analysis; type: ADME, organism-based; parameters: dose 80 mg/kg, time < 24 hrs, route po; settings: in vivo
[11] = Toxicity in CDAHFD-induced nonalcoholic steatohepatitis C57BL/6J mouse model assessed as reduction in serum AST level at 80 mg/kg, po administered daily for 4 weeks; type: organism-based; settings: in vivo, 672 h
[12] = target: T1, Bile acid receptor (Mus musculus); test: In vivo activation of FXR in CDAHFD-induced nonalcoholic steatohepatitis C57BL/6J mouse model assessed as induction of IBABP gene expression at 80 mg/kg, po administered daily for 4 weeks; type: functional, organism-based
[13] = Stability in Sprague-Dawley rat plasma at 80 mg/kg, po measured after 5 hrs by RP-HPLC analysis; type: ADME, organism-based; settings: in vivo
[14] = target: T1, Bile acid receptor (Mus musculus); test: In vivo activation of FXR in CDAHFD-induced nonalcoholic steatohepatitis C57BL/6J mouse model assessed as induction of FGF15 gene expression at 80 mg/kg, po administered daily for 4 weeks; type: functional, organism-based
[15] = target: T1, Bile acid receptor (Mus musculus); test: In vivo activation of FXR in CDAHFD-induced nonalcoholic steatohepatitis C57BL/6J mouse model assessed as reduction in liver fibrosis at 80 mg/kg, po administered daily for 4 weeks by picrosirius red staining method; type: functional, organism-based
[16] = Toxicity in CDAHFD-induced nonalcoholic steatohepatitis C57BL/6J mouse model assessed as change in amount of food intake at 80 mg/kg, po administered daily for 4 weeks; type: organism-based; settings: in vivo, 672 h
[17] = Toxicity in CDAHFD-induced nonalcoholic steatohepatitis C57BL/6J mouse model assessed as change in body weight at 80 mg/kg, po administered daily for 4 weeks; type: organism-based; settings: in vivo, 672 h
[18] = AUClast in Sprague-Dawley rat at 5 mg/kg, iv measured up to 24 hrs by HPLC analysis; type: ADME, organism-based; parameters: time < 24 hrs, dose 5 mg/kg, route iv; settings: in vivo, 24 h
[19] = Volume of distribution at steady state in Sprague-Dawley rat at 5 mg/kg, iv measured up to 24 hrs by HPLC analysis; type: ADME, organism-based; settings: in vivo, read-out: Vdss
Mus musculus [20] = test: Antifibrotic activity in CDAHFD-induced nonalcoholic steatohepatitis C57BL/6J mouse model assessed as reduction in COL1A1 gene expression at 80 mg/kg, po administered daily for 4 weeks; type: functional, organism-based
Mus musculus [21] = test: Antifibrotic activity in CDAHFD-induced nonalcoholic steatohepatitis C57BL/6J mouse model assessed as reduction in TIMP-1 gene expression at 80 mg/kg, po administered daily for 4 weeks; type: functional, organism-based
[22] = target: T1, Bile acid receptor (Mus musculus); test: In vivo activation of FXR in […]-induced nonalcoholic steatohepatitis C57BL/6J mouse model assessed as improved glucose tolerance measured up to 120 mins by glucose tolerance test; type: functional
[23] = target: T2, Bile acid receptor (Homo sapiens) (UniProt Q96RI1); test: Partial agonist activity at FXR (unknown origin) expressed in CHO-K1 cells coexpressed with beta-galactosidase incubated for 3 to 16 hrs by PathHunter chemiluminescence based assay relative to GW4064; type: cell-based; settings: filed as partial agonist, time 3-16 hrs
T2 sequence (whole entry): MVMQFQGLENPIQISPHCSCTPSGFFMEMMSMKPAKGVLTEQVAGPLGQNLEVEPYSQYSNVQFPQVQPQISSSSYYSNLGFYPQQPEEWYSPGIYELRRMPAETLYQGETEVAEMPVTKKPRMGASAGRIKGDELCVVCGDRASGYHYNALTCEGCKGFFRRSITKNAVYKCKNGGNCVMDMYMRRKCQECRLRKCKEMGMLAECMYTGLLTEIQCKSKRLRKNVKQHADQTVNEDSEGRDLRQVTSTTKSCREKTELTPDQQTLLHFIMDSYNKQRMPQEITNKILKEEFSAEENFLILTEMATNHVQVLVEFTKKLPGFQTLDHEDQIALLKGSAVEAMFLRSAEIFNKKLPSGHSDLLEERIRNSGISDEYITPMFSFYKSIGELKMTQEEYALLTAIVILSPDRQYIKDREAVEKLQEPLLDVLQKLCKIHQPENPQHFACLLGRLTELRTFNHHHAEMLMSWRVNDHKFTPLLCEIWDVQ

[24] = Drug metabolism in Sprague-Dawley rat plasma assessed as (E)-3-(3-((2-Cyano-4'-dimethylaminobiphenyl-4-ylmethyl)-cyclohexanecarbonylamino)-5-fluorophenyl)acrylic Acid metabolite formation at 5 mg/kg, iv measured up to 20 to 60 mins by RP-HPLC analysis; type: ADME, organism-based; settings: in vivo, time 20-60 min

Peroxisome proliferator-activated receptor delta, sequence (Q03181 whole entry): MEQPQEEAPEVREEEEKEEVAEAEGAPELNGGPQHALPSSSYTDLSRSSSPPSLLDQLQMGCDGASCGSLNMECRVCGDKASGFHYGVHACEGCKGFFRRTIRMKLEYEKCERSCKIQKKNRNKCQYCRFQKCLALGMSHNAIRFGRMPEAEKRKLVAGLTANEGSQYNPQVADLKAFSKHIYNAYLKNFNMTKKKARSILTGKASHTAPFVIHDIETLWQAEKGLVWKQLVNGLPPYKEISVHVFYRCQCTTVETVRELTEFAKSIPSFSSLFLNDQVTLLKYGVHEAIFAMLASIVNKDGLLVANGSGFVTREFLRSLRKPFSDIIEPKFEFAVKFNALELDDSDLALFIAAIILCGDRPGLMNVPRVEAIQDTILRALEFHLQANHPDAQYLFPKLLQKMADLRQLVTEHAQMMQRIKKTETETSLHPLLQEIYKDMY

- EC50 [1]: 6 nM
SMILES: CCCc1c(OCCCOc2ccc(OCC(=O)O)cc2)ccc(C(C)=O)c1O

- Retention_time [2]: 5.25 min
- clearance [4]: 5.6 L/h/kg
- Activity [5]: Active
- Activity [6]: Active
- F [7]: 4%
- half-life [8]: 4.8 min
- AUClast [10]: 1.5 µg·h/mL
- Activity [12]: Active
- Stability [13]: Unstable
- Activity [14]: Active
- Activity [15]: Active
- AUClast [18]: 0.9 µg·h/mL
- Vd [19]: 0.7 L/kg
- Emax [23]: 53%
- Drug metabolism [24]: Metabolite_Detected
SMILES: COC(=O)/C=C/c1cc(F)cc(N(Cc2ccc(-c3ccc(N(C)C)cc3)c(C#N)c2)C(=O)C2CCCCC2)c1
- Activity [3]: Non-Toxic
- Activity (Mus musculus [9]): Active
- Activity [11]: Non-Toxic
- Activity [16]: Non-Toxic
- Activity [17]: Non-Toxic
- Activity (Mus musculus [20]): Active
- Activity (Mus musculus [21]): Active
- Activity [22]: Active
